The source of these data is US10870638B2, “Pyridazinone compound or its salt, and herbicide containing it” (ISHIHARA SANGYO KAISHA, LTD., priority 2016, dated 2020).

What all share (assay type): in vivo
Holding throughout (conditions): active ingredient amount 31 g/ha, 14th day after application

Assay [1] deals with redroot pigweed (Amaranthus retroflexus L.). As to the kind of experiment: Test Example 1: foliar treatment, growth inhibition rate on 14th day. The method, boiled down:
(§1)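 Visual 0–100% inhibition scoring (100 = complete kill) at 14 days after foliar treatment of soil-grown seedlings at species-specific leaf stages, with the compound sprayed as a wettable powder or emulsifiable concentrate dilution.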

Assay [2] has as its system green foxtail (Setaria viridis L.). Described as above. In short, it runs like this:
(§2)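 Growth inhibition rates (%) come from visual observation on the 14th day following a single foliar application. Soybean was sprayed at the primary leaf stage, rice at 0.2–2.7 leaves, wild oat at 0.4–1.2, green foxtail at 0.5–3.2.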

Assay [3] relates to crabgrass (Digitaria sanquinalis L.). The assay is described as above. In short, it runs like this: as §1
Assay [4] relates to italian ryegrass (Lolium multiflorum Lam.). The description is as above. In short, it runs like this:
as §1

In assay [5] the test system is wheat (Triticum aestivum L.). The description is as above. In short, it runs like this: as §1
Assay [6] concerns wild oat (Avena fatua L.). The assay is described as above. The method, boiled down:
as §2

Assay [7] concerns rice (Oryza sativa L.). Described as above. In short, it runs like this: as §2
Assay [8] concerns barnyardgrass (Echinochloa crus-qalli L.). The assay is described as above. The method, boiled down:
as §1

Assay [9] relates to soybean (Glycine max Merr.). The assay is described as above. The method, boiled down: as §2
Assay [10] deals with corn (Zea mays L.). The assay is described as above. The method, boiled down:
as §1

Assay [11] has as its system redroot pigweed (Amaranthus retroflexus L.). Description: Test Example 2: soil application on the day after sowing, growth inhibition rate on 14th day. An excerpt: (§3) Upland field soil was put into a 1/300,000 hectare pot, and seeds of various plants (barnyardgrass (Echinochloa crus-qalli L.), crabgrass (Digitaris sanquinalis L.), green foxtail (Setaria viridis L.), redroot pigweed (Amaranthus retroflexus L.), prickly sida (Sida spinosa L.), velvetleaf (Abutilon theophrasti MEDIC.), rice (Oryza sativa L.), corn (Zea mays L.), wheat (Triticum aestivum L.), soybean (Glycine max Merr.)) were sown. On the day after sowing, wettable powders or emulsifiable concentrates of the compounds of the present invention prepared in accordance with a conventional preparation method, were weighed so as to achieve the prescribed active ingredient amounts, and diluted with water in an amount corresponding to 1,000 liters per 1 hectare, followed by soil application by a small sprayer.
(§4) On the 14th day after the application, the state of growth of the respective plants was visually observed, and the herbicidal effect was evaluated by a growth inhibition rate (%) of 0 (equivalent to the non-treated area) to 100 (complete kill).

Assay [12] concerns green foxtail (Setaria viridis L.). The description is as above.
From the text: as §3, §4

The subject of assay [13] is wheat (Triticum aestivum L.). The assay is described as above.
From the text: as §3, §4

Assay [14] has as its system prickly sida (Sida spinosa L.). The assay is described as above.
From the text: as §3, §4

Assay [15] deals with crabgrass (Digitaris sanquinalis L.). The assay is described as above.
From the text: as §3, §4

For assay [16], the system named is rice (Oryza sativa L.). Described as above.
From the text: as §3, §4

The subject of assay [17] is barnyardgrass (Echinochloa crus-qalli L.). The description is as above.
From the text: as §3, §4

Assay [18] relates to soybean (Glycine max Merr.). The assay is described as above.
From the text: as §3, §4

Assay [19] relates to corn (Zea mays L.). Described as above.
From the text: as §3, §4

Assay [20] concerns velvetleaf (Abutilon theophrasti MEDIC.). The assay is described as above.
From the text: as §3, §4

The structures appear in SMILES notation.

For `CC(=O)Oc1c(C)nn(C)c(=O)c1-c1cc(Oc2ncc(C(F)(F)F)cc2Cl)ccc1C` [1-40], the results for the “Growth inhibition rate (%) Redroot pigweed” value in [1] and in assay [11] were 40% and 0%, respectively. Moreover, the “Growth inhibition rate (%) Green foxtail” value in assay [2] and in assay [12] was 100% in each case. Also, the “Growth inhibition rate (%) Crabgrass” value worked out at 99% in assay [3] and 100% in assay [15]. In addition, the “Growth inhibition rate (%) Italian ryegrass” value in [4] came to 100%. Besides, the “Growth inhibition rate (%) Wheat” value in assay [5] amounted to 93%; in [13], 0%. Further, in assay [6], the “Growth inhibition rate (%) Wild oat” value was found to be 98%. Besides, the “Growth inhibition rate (%) Rice” value with rice (Oryza sativa L.) [7] is 80%; in the assay on rice (Oryza sativa L.) [16], 60%. For the same compound, the “Growth inhibition rate (%) Barnyardgrass” value in assay [8] and in assay [17] was 100% in each case. The “Growth inhibition rate (%) Soybean” value in [9] amounted to 10%; in [18], 0%. The “Growth inhibition rate (%) Corn” value is given as 100% in the assay on corn (Zea mays L.) [10] and 30% in the assay on corn (Zea mays L.) [19]. In addition, the “Growth inhibition rate (%) Prickly sida” value in [14] is reported as 0%. The “Growth inhibition rate (%) Velvetleaf” value in assay [20] was found to be 0%.
`CCOC(=O)Oc1c(C)nn(C)c(=O)c1-c1cc(Oc2ncc(C(F)(F)F)cc2Cl)ccc1C` [1-41]: the “Growth inhibition rate (%) Redroot pigweed” value came to 10% in [1] and 0% in [11]. The “Growth inhibition rate (%) Green foxtail” value in [2] and in [12] was 100% throughout. In addition, the results for the “Growth inhibition rate (%) Crabgrass” value in assay [3] and in [15] were 99% and 100%, respectively. In addition, the “Growth inhibition rate (%) Italian ryegrass” value in assay [4] is 100%. Further, the “Growth inhibition rate (%) Wheat” value turned out to be 98% in [5] and 0% in assay [13]. In addition, the “Growth inhibition rate (%) Wild oat” value in [6] is 99%. Besides, the “Growth inhibition rate (%) Rice” value came out at 80% in the assay on rice (Oryza sativa L.) [7] and 0% with rice (Oryza sativa L.) [16]. For the same compound, the “Growth inhibition rate (%) Barnyardgrass” value in [8] and in assay [17] was 100% in each case. Also, the “Growth inhibition rate (%) Soybean” value in assay [9] and in [18] was 0% each time. The “Growth inhibition rate (%) Corn” value in the assay on corn (Zea mays L.) [10] was 98%; in the assay with corn (Zea mays L.) [19], 20%. The “Growth inhibition rate (%) Prickly sida” value in [14] is given as 0%. Besides, in assay [20], the “Growth inhibition rate (%) Velvetleaf” value is 0%.
As to `CC(=O)Oc1c(C)nn(C)c(=O)c1-c1cc(Sc2ncc(C(F)(F)F)cc2Cl)ccc1C` [1-42], the “Growth inhibition rate (%) Redroot pigweed” value in assay [1] turned out to be 10%; in assay [11], 0%. For the same compound, the “Growth inhibition rate (%) Green foxtail” value in assay [2] and in [12] was 100% each time. Moreover, the “Growth inhibition rate (%) Crabgrass” value in assay [3] and in assay [15] was 100% in each case. In addition, the “Growth inhibition rate (%) Italian ryegrass” value in [4] was 100%. Besides, the “Growth inhibition rate (%) Wheat” value is 100% in assay [5] and 0% in assay [13]. Also, the “Growth inhibition rate (%) Wild oat” value in [6] was determined as 100%. The “Growth inhibition rate (%) Rice” value worked out at 88% in the assay with rice (Oryza sativa L.) [7] and 80% in the assay with rice (Oryza sativa L.) [16]. Besides, the “Growth inhibition rate (%) Barnyardgrass” value in assay [8] and in [17] was 100% in each case. The “Growth inhibition rate (%) Soybean” value amounted to 10% in assay [9] and 0% in assay [18]. For the same compound, the “Growth inhibition rate (%) Corn” value with corn (Zea mays L.) [10] is reported as 100%; with corn (Zea mays L.) [19] it was 40%. Also, in assay [14], the “Growth inhibition rate (%) Prickly sida” value was 0%. Also, in assay [20], the “Growth inhibition rate (%) Velvetleaf” value is listed as 0%.
